Measured values from PubChem BioAssay (NCI).
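96-well plates; 48 h exposure; 5 concentrations. Endpoints by linear interpolation between flanking doses. Not reached: highest tested concentration assigned. Definition used: TGI = concentration required for complete inhibition of growth.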

Legend:
Experiment in all cases: inhibition of tumour cell growth, NCI panel, 48 h
[1] = tested on: SK-OV-3 ovarian
[2] = tested on: ACHN renal
[3] = tested on: SK-MEL-28 melanoma
[4] = tested on: OVCAR-5 ovarian
[5] = tested on: OVCAR-4 ovarian
[6] = tested on: TK-10 renal
[7] = tested on: UO-31 renal
[8] = tested on: CAKI-1 renal
[9] = tested on: SF-539 CNS
[10] = tested on: NCI-H23 lung
[11] = tested on: MCF7 breast
[12] = tested on: OVCAR-3 ovarian
[13] = tested on: U251 CNS
[14] = tested on: HCT-15 colon
[15] = tested on: IGROV1 ovarian
[16] = tested on: UACC-257 melanoma
[17] = tested on: EKVX NSCLC
[18] = tested on: MOLT-4 leukemia
[19] = tested on: PC-3 prostate
[20] = tested on: MDA-MB-435
[21] = tested on: SF-295 CNS
[22] = tested on: NCI-H226 lung
[23] = tested on: HT29 colon
[24] = tested on: M14 melanoma
[25] = tested on: KM12 colon
[26] = tested on: SF-268 CNS
[27] = tested on: T-47D breast
[28] = tested on: HOP-92 NSCLC
[29] = tested on: 786-0 renal
[30] = tested on: HCC-2998 colon
[31] = tested on: MDA-N
[32] = tested on: MDA-MB-231 breast
[33] = tested on: LOX IMVI melanoma
[34] = tested on: SNB-75 CNS
[35] = tested on: HS 578T breast
[36] = tested on: NCI-H522 lung
[37] = tested on: SN12C renal
[38] = tested on: SK-MEL-5 melanoma
[39] = tested on: RPMI-8226 leukemia
[40] = tested on: OVCAR-8 ovarian
[41] = tested on: SK-MEL-2 melanoma
[42] = tested on: NCI-H460 lung
[43] = tested on: HOP-62 NSCLC
[44] = tested on: RXF 393 renal
[45] = tested on: DU-145 prostate
[46] = tested on: SR leukemia
[47] = tested on: MALME-3M melanoma
[48] = tested on: NCI/ADR-RES ovarian
[49] = tested on: A498 renal
[50] = tested on: SW-620 colon
[51] = tested on: COLO 205 colon
[52] = tested on: HL-60(TB) leukemia
[53] = tested on: A549 NSCLC
[54] = tested on: CCRF-CEM leukemia
[55] = tested on: SNB-19 CNS
[56] = tested on: HCT-116 colon
[57] = tested on: K-562 leukemia
[58] = tested on: UACC-62 melanoma
[59] = tested on: BT-549 breast

In the case of COc1ccc(N=Nc2ccc3oc(=O)c(C(=O)Nc4ccc(Cl)cc4)cc3c2)cc1, the TGI [1] is reported as > 10 µM, the TGI [2] is reported as > 10 µM and the TGI [3] is reported as > 10 µM. For the same compound, the TGI [4] was > 10 µM, the TGI [5] was > 10 µM and the TGI [6] was > 10 µM. For the same compound, the TGI [7] was > 10 µM, the TGI [8] was > 10 µM and the TGI [9] was > 10 µM. The TGI [10] was > 10 µM, the TGI [11] was > 10 µM and the TGI [12] was > 10 µM. The TGI [13] was > 10 µM, the TGI [14] was > 10 µM and the TGI [15] was > 10 µM. The TGI [16] was > 10 µM, the TGI [17] was > 10 µM and the TGI [18] was > 10 µM. For the same compound, the TGI [19] was > 10 µM, the TGI [20] was > 10 µM and the TGI [21] was > 10 µM. The TGI [22] was > 10 µM, the TGI [23] was > 10 µM and the TGI [24] was > 10 µM. For the same compound, the TGI [25] was > 10 µM, the TGI [26] was > 10 µM and the TGI [27] was > 10 µM. For the same compound, the TGI [28] was > 10 µM, the TGI [29] was > 10 µM and the TGI [30] was > 10 µM. For the same compound, the TGI [31] was > 10 µM, the TGI [32] was > 10 µM and the TGI [33] was > 10 µM. The TGI [34] was > 10 µM, the TGI [35] was > 10 µM and the TGI [36] was > 10 µM. The TGI [37] was > 10 µM, the TGI [38] was > 10 µM and the TGI [39] was > 10 µM. For the same compound, the TGI [40] was > 10 µM, the TGI [41] was > 10 µM and the TGI [42] was > 10 µM. The TGI [43] was > 10 µM, the TGI [44] was > 10 µM and the TGI [45] was > 10 µM. For the same compound, the TGI [46] was > 10 µM, the TGI [47] was > 10 µM and the TGI [48] was > 10 µM. For the same compound, the TGI [49] was > 10 µM, the TGI [50] was > 10 µM and the TGI [51] was > 10 µM.
O=[N+]([O-])/C=C\c1c[nH]c2ccc(OCc3ccccc3)cc12 showed a TGI [1] of 31.6 µM, a TGI [2] of 4.72 µM and a TGI [3] of 9.47 µM. The TGI [4] was 25.6 µM, the TGI [6] was 23.1 µM and the TGI [7] was 15.2 µM. The TGI [8] was 53.5 µM, the TGI [52] was 8.78 µM and the TGI [9] was 22.6 µM. For the same compound, the TGI [10] was 7.33 µM, the TGI [53] was 14.8 µM and the TGI [11] was 73.7 µM. For the same compound, the TGI [12] was 22.8 µM, the TGI [54] was > 100 µM and the TGI [13] was 19 µM. The TGI [15] was 15.8 µM, the TGI [16] was 3.73 µM and the TGI [55] was 16.5 µM. For the same compound, the TGI [17] was 29.3 µM, the TGI [18] was > 100 µM and the TGI [19] was 21.5 µM. It also gave a TGI [20] of 4.73 µM, a TGI [21] of 23.8 µM and a TGI [22] of 13.4 µM. For the same compound, the TGI [24] was 4.49 µM, the TGI [25] was 8.86 µM and the TGI [26] was 25.6 µM. The TGI [56] was 3.27 µM, the TGI [27] was 12.4 µM and the TGI [28] was 19.4 µM. The TGI [29] was 4.56 µM, the TGI [30] was 3.66 µM and the TGI [31] was 5.56 µM. It also gave a TGI [32] of 18 µM, a TGI [33] of 3.5 µM and a TGI [35] of 7.24 µM. For the same compound, the TGI [36] was 22.4 µM, the TGI [37] was 10 µM and the TGI [38] was 19.2 µM. It also gave a TGI [57] of 6.88 µM, a TGI [39] of 4.62 µM and a TGI [40] of 17.1 µM. For the same compound, the TGI [41] was 24 µM, the TGI [42] was 25.1 µM and the TGI [43] was 29.4 µM. For the same compound, the TGI [44] was 6.73 µM, the TGI [58] was 14.1 µM and the TGI [45] was 22.2 µM. For the same compound, the TGI [46] was 4.91 µM, the TGI [47] was 25.9 µM and the TGI [48] was 50.1 µM. It also gave a TGI [49] of 22.6 µM, a TGI [50] of 7.31 µM and a TGI [51] of 13.4 µM.
Cc1cc(=O)oc2c3c(ccc12)OC(c1ccc(Br)cc1)CC3=O (stereo not drawn) gave a TGI [1] of 30.3 µM, a TGI [2] of 29.4 µM and a TGI [3] of 21.3 µM. The TGI [4] was 31.4 µM, the TGI [5] was > 100 µM and the TGI [6] was 27.1 µM. It also gave a TGI [7] of 21.9 µM, a TGI [8] of 43.8 µM and a TGI [9] of 27.1 µM. For the same compound, the TGI [10] was 27.5 µM, the TGI [53] was 34.8 µM and the TGI [11] was 12.7 µM. The TGI [12] was 24.3 µM, the TGI [54] was 9.11 µM and the TGI [13] was 18.3 µM. It also gave a TGI [14] of 34.2 µM, a TGI [15] of 32.5 µM and a TGI [16] of 27.9 µM. It also gave a TGI [55] of 20.5 µM, a TGI [17] of 31.8 µM and a TGI [18] of 4.91 µM. It also gave a TGI [19] of 47.9 µM, a TGI [20] of 16.9 µM and a TGI [21] of 23.9 µM. It also gave a TGI [22] of 38.2 µM, a TGI [23] of 32 µM and a TGI [24] of 31.6 µM. It also gave a TGI [25] of 33.1 µM, a TGI [26] of 32.1 µM and a TGI [56] of 23.8 µM. The TGI [27] was 1.18 µM, the TGI [29] was 25.5 µM and the TGI [30] was 59.2 µM. The TGI [31] was > 100 µM, the TGI [32] was 37.8 µM and the TGI [33] was 14.6 µM. For the same compound, the TGI [34] was 18.6 µM, the TGI [35] was 38.2 µM and the TGI [36] was 18 µM. The TGI [37] was > 100 µM, the TGI [38] was 24.5 µM and the TGI [57] was 19 µM. The TGI [59] was 11.4 µM, the TGI [39] was > 100 µM and the TGI [40] was 33.7 µM. It also gave a TGI [41] of 33.5 µM, a TGI [42] of 36.8 µM and a TGI [43] of 21.8 µM. For the same compound, the TGI [58] was 23.7 µM, the TGI [46] was > 100 µM and the TGI [47] was 71.3 µM. For the same compound, the TGI [48] was > 100 µM, the TGI [50] was 23.9 µM and the TGI [51] was 30.5 µM.
O=C1CC(c2ccc(Cl)cc2)C2(C(=O)NC(=O)NC2=O)C(c2ccc(Cl)cc2)C1 (stereo not drawn) was tested, and the TGI [2] was > 75 µM, the TGI [3] was 37 µM and the TGI [4] was > 75 µM. For the same compound, the TGI [5] was > 75 µM, the TGI [6] was > 75 µM and the TGI [7] was > 75 µM. The TGI [8] was > 75 µM, the TGI [52] was > 75 µM and the TGI [9] was > 75 µM. The TGI [10] was > 75 µM, the TGI [11] was > 75 µM and the TGI [12] was > 75 µM. The TGI [54] was > 75 µM, the TGI [13] was > 75 µM and the TGI [14] was > 75 µM. The TGI [15] was 51.3 µM, the TGI [16] was > 75 µM and the TGI [55] was > 75 µM. For the same compound, the TGI [17] was > 75 µM, the TGI [18] was 41.3 µM and the TGI [19] was > 75 µM. For the same compound, the TGI [20] was 43.8 µM, the TGI [21] was > 75 µM and the TGI [22] was 36.4 µM. The TGI [23] was > 75 µM, the TGI [24] was > 75 µM and the TGI [25] was > 75 µM. The TGI [26] was > 75 µM, the TGI [56] was > 75 µM and the TGI [27] was > 75 µM. For the same compound, the TGI [28] was 54.9 µM, the TGI [29] was > 75 µM and the TGI [30] was > 75 µM. For the same compound, the TGI [31] was 49 µM, the TGI [32] was 34.8 µM and the TGI [33] was > 75 µM. For the same compound, the TGI [34] was > 75 µM, the TGI [36] was 40.6 µM and the TGI [37] was 54 µM. The TGI [38] was 47.1 µM, the TGI [57] was > 75 µM and the TGI [59] was > 75 µM. For the same compound, the TGI [39] was 32.6 µM, the TGI [40] was > 75 µM and the TGI [41] was 38.4 µM. The TGI [42] was > 75 µM, the TGI [43] was 69 µM and the TGI [44] was 52.2 µM. The TGI [58] was > 75 µM, the TGI [45] was > 75 µM and the TGI [47] was 39.8 µM. For the same compound, the TGI [48] was > 75 µM, the TGI [50] was 67.4 µM and the TGI [51] was 65.1 µM.
